The values below come from publication PMC8214221, “Sequence determinants in the cathelicidin LL-37 that promote inflammation via presentation of RNA to scavenger receptors” (The Journal of Biological Chemistry, 2021).

Residues, ends and D or L forms follow the SMILES beside them.

Assay [1] concerns TBK1 and IRF7 phosphorylation in NHEKs. The assay is described as follows: Immunoblot of MAVS pathway signaling in NHEKs. The format is cell-based, human. Particulars: U1 dsRNA 2.5 μg/ml + peptide 2 μM, in comparison to U1 + LL-34 parent. The source says: RNA-Seq was utilized to obtain a global transcriptomic profile and map unique immune pathways in NHEKs exposed to U1 dsRNA, LL-34 parent, Pep I24A, Pep L31A, and a combination of U1 dsRNA and LL-34 parent, Pep I24A, or Pep L31A. […] Similarly, 448 and 325 unique differentially regulated genes were observed after U1 + I24A and U1 + L31A treatments, respectively (Fig. 3, A and B and Fig. S2, A and B). […] These pathways included type 1 interferon signaling, cytokine signaling, response to external biotic stimulus, and cytokine-mediated signaling pathway. […] We verified the repression of mitochondrial antiviral signaling (MAVS) with immunoblot analysis. […]
Figure 3 LL-34 I24A and L31A mutations result in loss of innate immune vetting of U1 dsRNA leading to repressed activation of antiviral and innate immune pathways.A, Venn diagram for all differentially expressed genes from NHEKs treated with U1 dsRNA, LL-34-parent, and combinations of either U1 dsRNA and LL-34-parent. […] Protein expression of p-TBK1, TBK1, p-IRF7, IRF7, p-Akt, Akt, p-ERK1/2, and ERK1/2 was assessed with immunoblot. […]
Cells were lysed in complete radioimmunoprecipitation assay buffer with added 1× protease and Phosphatase Inhibitor Cocktail (Life Technologies). […] Total protein was quantified for each treatment with Bio-Rad Protein Assay (Bio-Rad). […]
Background: In western blotting, separated proteins are transferred to a membrane and probed.

The subject of assay [2] is S. aureus strain USA300 and SA112, GAS. Kind of assay: Bacterial growth inhibition (OD600), Gram-positive strains. The format is cell-based, Staphylococcus aureus; group A Streptococcus. Particulars: 0-50 µM overnight, OD 600, n = 3, S. aureus USA300, SA113 (SA112 in text). How it is done:
We further looked at mRNA abundance by quantitative RT-PCR (qRT-PCR) to evaluate gene expression for type 1 interferon IFNB1, chemokine CXCL10, and cytokines TSLP and IL6 in NHEKs treated with selected LL-34 parent, LL-34—F5A, I24A, F27A, and L31A—peptides either alone or in combination with U1 dsRNA for 18 h (Fig. 1, E–H).
Methicillin-resistant S. aureus USA300 and methicillin-sensitive S. aureus SA113 (American Type Culture Collection 35556) were cultured in 3% tryptic soy broth overnight at 37 °C with shaking at 250 rpm. GAS M49 strain NZ131 was cultured in Todd Hewitt broth supplemented with 1% yeast extract overnight at 37 °C without shaking. E. coli R1 strain RS218 was cultured in LB broth overnight at 37 °C with shaking at 250 rpm. MIC values were determined using a round-bottom 96-well microdilution method with RPMI cell culture media (as a source of Ca^2+ and Mg^2+) supplemented with tryptic soy broth, Todd Hewitt broth/yeast extract, or LB to facilitate growth of the respective bacterial strains. Overnight bacterial cultures were subcultured into fresh broth and grown to midlate log phase indicated by an absorbance at 600 nm value between 0.8 and 1.0 for each bacterial strain. The absorbance was then normalized to provide a concentration of 1 × 10^7 colony-forming units/ml in RPMI medium. The LL-34 parent and alanine scan mutants were serially diluted into the 96-well microtiter plates containing prewarmed RPMI bacterial growth medium. A 10 μl aliquot of the midlate log phase bacteria was inoculated into the 96-well microtiter plates that contained 95 μl of RPMI medium with or without the LL-34 peptide dilutions and incubated for 16 to 18 h at […] with shaking at 200 rpm. Inhibition of growth was determined by measuring the absorbance at 600 nm readings of each well using a microplate reader (Infinite M200 Pro; Tecan). The MIC of each bacterial strain was determined by the lowest peptide concentration that inhibited more than 80% bacterial growth.
(A) NHEKs and HDMECs (B) were treated with LL34- parent peptide and all the 34 alanine substituted peptides (Pep L1A-Pep R34A) and LL37 at 2 µM for 16 h. IL-6 protein secretion was assessed with ELISA (n=3) (C-F) LL34-Parent, LL34 F5A, LL34 I24A, LL34 F27A, and LL34 L31A peptides were incubated with S. aureus USA 300, S. aureus SA113, Group A Streptococcus (GAS) and E. coli at increasing concentrations (0-50 µM) overnight, and bacterial culture growth was assayed as absorbance at OD 600 (n=3).

`CC[C@H](C)[C@H](NC(=O)[C@H](CCCCN)NC(=O)[C@H](CCC(=O)O)NC(=O)[C@H](CCCCN)NC(=O)[C@H](CO)NC(=O)[C@H](CCCCN)NC(=O)[C@H](CCCNC(=N)N)NC(=O)[C@H](Cc1ccccc1)NC(=O)[C@H](Cc1ccccc1)NC(=O)[C@H](CC(=O)O)NC(=O)CNC(=O)[C@H](CC(C)C)NC(=O)[C@@H](N)CC(C)C)C(=O)NCC(=O)N[C@@H](CCCCN)C(=O)N[C@@H](CCC(=O)O)C(=O)N[C@@H](Cc1ccccc1)C(=O)N[C@@H](CCCCN)C(=O)N[C@@H](CCCNC(=N)N)C(=O)N[C@H](C(=O)N[C@H](C(=O)N[C@@H](CCC(N)=O)C(=O)N[C@@H](CCCNC(=N)N)C(=O)N[C@@H](C)C(=O)N[C@@H](CCCCN)C(=O)N[C@@H](CC(=O)O)C(=O)N[C@@H](Cc1ccccc1)C(=O)N[C@@H](CC(C)C)C(=O)N[C@@H](CCCNC(=N)N)C(=O)N[C@@H](CC(N)=O)C(=O)N[C@@H](CC(C)C)C(=O)N[C@H](C(=O)N1CCC[C@H]1C(=O)N[C@@H](CCCNC(=N)N)C(=O)O)C(C)C)C(C)C)[C@@H](C)CC` [LL-34—I24A] (H-LLGDFFRKSKEKIGKEFKRIVQRAKDFLRNLVPR-OH): the “Phosphorylation of TBK1 and IRF7” value in assay [1] is listed as “Decreased phosphorylation”. Further, the “Capacity to inhibit growth of Gram-positive bacteria” value in assay [2] is “increased capacity to inhibit growth of most of the tested Gram-positive bacteria”.

For `CC[C@H](C)[C@H](NC(=O)[C@H](CCCCN)NC(=O)[C@H](CCC(=O)O)NC(=O)[C@H](CCCCN)NC(=O)[C@H](CO)NC(=O)[C@H](CCCCN)NC(=O)[C@H](CCCNC(=N)N)NC(=O)[C@H](Cc1ccccc1)NC(=O)[C@H](Cc1ccccc1)NC(=O)[C@H](CC(=O)O)NC(=O)CNC(=O)[C@H](CC(C)C)NC(=O)[C@@H](N)CC(C)C)C(=O)NCC(=O)N[C@@H](CCCCN)C(=O)N[C@@H](CCC(=O)O)C(=O)N[C@@H](Cc1ccccc1)C(=O)N[C@@H](CCCCN)C(=O)N[C@@H](CCCNC(=N)N)C(=O)N[C@H](C(=O)N[C@H](C(=O)N[C@@H](CCC(N)=O)C(=O)N[C@@H](CCCNC(=N)N)C(=O)N[C@H](C(=O)N[C@@H](CCCCN)C(=O)N[C@@H](CC(=O)O)C(=O)N[C@@H](Cc1ccccc1)C(=O)N[C@@H](CC(C)C)C(=O)N[C@@H](CCCNC(=N)N)C(=O)N[C@@H](CC(N)=O)C(=O)N[C@@H](C)C(=O)N[C@H](C(=O)N1CCC[C@H]1C(=O)N[C@@H](CCCNC(=N)N)C(=O)O)C(C)C)[C@@H](C)CC)C(C)C)[C@@H](C)CC` [LL-34—L31A] (H-LLGDFFRKSKEKIGKEFKRIVQRIKDFLRNAVPR-OH), the “Phosphorylation of TBK1 and IRF7” value in assay [1] was “Decreased phosphorylation”. Besides, the “Capacity to inhibit growth of Gram-positive bacteria” value in assay [2] was “increased capacity to inhibit growth of most of the tested Gram-positive bacteria”.
